This is an account of results in patent US20240109930A1, “TRIAZOLYL-METHYL SUBSTITUTED ALPHA-D-GALACTOPYRANOSIDE DERIVATIVES” (Idorsia Pharmaceuticals Ltd, priority 2021, published 2024).

Each structure is given as a SMILES string.

The target of one assay is human Gal-3 (hGal-3) (Homo sapiens (Human), UniProt P17931). The experiment in a line: Competitive binding assay: biotinylated hGal-3 binding to microplate-adsorbed asialofetuin (ASF). To be noted: IC50 values from several measurements given as geomean. How it is done: (§1) The inhibitory activity of compounds is determined in competitive binding assays. This spectrophotometric assay measures the binding of biotinylated human Gal-3 (hGal-3) or human Gal-1 (hGal-1), respectively, to a microplate-adsorbed glycoprotein, asialofetuin (ASF) (Proc Natl Acad Sci USA. 2013 Mar. 26; 110(13):5052-7.). Alternatively, and preferably, a human Gal-1 version in which all six cysteines are substituted by serines may be used.
Sequence of human Gal-3 (hGal-3) (P17931 whole entry): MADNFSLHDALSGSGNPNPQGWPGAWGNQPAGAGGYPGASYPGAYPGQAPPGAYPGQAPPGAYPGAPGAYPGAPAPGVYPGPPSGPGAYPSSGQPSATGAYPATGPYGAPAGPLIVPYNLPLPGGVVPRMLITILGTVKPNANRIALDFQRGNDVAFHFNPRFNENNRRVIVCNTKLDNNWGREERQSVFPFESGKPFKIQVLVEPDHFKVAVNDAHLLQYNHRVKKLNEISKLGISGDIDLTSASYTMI
(§2) Briefly, compounds are serially diluted in DMSO (working dilutions). ASF-coated 384well plates are supplemented with 22.8 μL/well of biotinylated hGal-3 or hGal-1 in assay buffer (i.e. 300-1000 ng/mL biotinylated hGal-3 or hGal-1) to which 1.2 μL of compound working dilutions are added and mixed.
(§3) Plates are incubated for 3 hours at 4° C., then washed with cold assay buffer (3×50 uL), incubated for 1 hour with 25 μL/well of a streptavidin-peroxidase solution (diluted in assay buffer to 80 ng/mL) at 4° C., followed by further washing steps with assay buffer (3×50 uL). Finally, 25 μL/well of ABTS substrate is added.
(§4) The calculated IC50 values may fluctuate depending on the daily assay performance. Fluctuations of this kind are known to those skilled in the art. IC50 values from several measurements are given as geomean values.

A further assay addresses human Gal-1 (hGal-1) (Homo sapiens, UniProt P09382, C131S/C17S/C43S/C61S/C89S). Briefly: Competitive binding assay: biotinylated hGal-1 binding to microplate-adsorbed asialofetuin (ASF). Particulars: IC50 values from several measurements given as geomean. The protocol:
as §1, §2, §3, §4

Usually IC50 stands for the midpoint of a concentration-inhibition curve. As for `CO[C@@H]1[C@@H](n2cc(-c3ccc(Cl)c(F)c3F)nn2)[C@@H](O)[C@@H](CO)O[C@@H]1Cc1cn(C2COCC2(F)F)nn1` (mixture of isomers) [Example 2.1.90.A], the IC50 at human Gal-3 (hGal-3) worked out at 0.03 µM; on human Gal-1 (hGal-1), 1.13 µM. With `CO[C@@H]1[C@@H](n2cc(-c3ccc(Cl)c(F)c3F)nn2)[C@@H](O)[C@@H](CO)O[C@@H]1Cc1cn(C2COCC2(F)F)nn1` (mixture of isomers) [Example 2.1.90.B], the 50% inhibitory concentration (IC50) on human Gal-3 (hGal-3) stood at 0.02 µM; on human Gal-1 (hGal-1) it was 0.91 µM. With `CO[C@@H]1[C@@H](n2cc(-c3ccc(Cl)c(F)c3F)nn2)[C@@H](O)[C@@H](CO)O[C@@H]1Cc1cn([C@@H]2CCC[C@H]2F)nn1` (relative stereo) [Example 2.1.79.CD, (2R,3R,4S,5R,6R)-4-(4-(4-chloro-2,3-difluorophenyl)-1H-1,2,3-triazol-1-yl)-6-((1-((1R*,2R*)-2-fluorocyclopentyl)-1H-1,2,3-triazol-4-yl)methyl)-2-(hydroxymethyl)-5-methoxytetrahydro-2H-pyran-3-ol], the concentration for half-maximal inhibition (IC50) on human Gal-3 (hGal-3) was found to be 0.06 µM; on human Gal-1 (hGal-1), 3.48 µM. `CO[C@@H]1[C@@H](n2cc(-c3ccc(Cl)c(F)c3F)nn2)[C@@H](O)[C@@H](CO)O[C@@H]1Cc1cn([C@@H]2CC[C@@H]2F)nn1` (relative stereo) [Example 2.1.88.A, (2R,3R,4S,5R,6R)-4-(4-(4-chloro-2,3-difluorophenyl)-1H-1,2,3-triazol-1-yl)-6-((1-((1R*,2S*)-2-fluorocyclobutyl)-1H-1,2,3-triazol-4-yl)methyl)-2-(hydroxymethyl)-5-methoxytetrahydro-2H-pyran-3-ol] had a half-maximal inhibitory concentration (IC50) on human Gal-1 (hGal-1) of 1.77 µM. On the same count and under the same terms, the figure for `CO[C@@H]1[C@@H](n2cc(-c3ccc(Cl)c(F)c3F)nn2)[C@@H](O)[C@@H](CO)O[C@@H]1Cc1cn([C@@H]2CC[C@H]2F)nn1` (relative stereo) [Example 2.1.88.C, (2R,3R,4S,5R,6R)-4-(4-(4-chloro-2,3-difluorophenyl)-1H-1,2,3-triazol-1-yl)-6-((1-((1R*,2R*)-2-fluorocyclobutyl)-1H-1,2,3-triazol-4-yl)methyl)-2-(hydroxymethyl)-5-methoxytetrahydro-2H-pyran-3-ol] is 1.68 µM. As to `CO[C@@H]1[C@@H](n2cc(-c3ccc(Br)c(F)c3F)nn2)[C@@H](O)[C@@H](CO)O[C@@H]1Cc1cn([C@H]2CCC[C@@H]2F)nn1` (relative stereo) [Example 4.1.79.CD, (2R,3R,4S,5R,6R)-4-(4-(4-bromo-2,3-difluorophenyl)-1H-1,2,3-triazol-1-yl)-6-((1-((1S*,2S*)-2-fluorocyclopentyl)-1H-1,2,3-triazol-4-yl)methyl)-2-(hydroxymethyl)-5-methoxytetrahydro-2H-pyran-3-ol], the IC50 at human Gal-3 (hGal-3) stood at 0.07 µM; on human Gal-1 (hGal-1), 4.96 µM.

On to `CO[C@@H]1[C@@H](n2cc(-c3ccc(Br)c(F)c3F)nn2)[C@@H](O)[C@@H](CO)O[C@@H]1Cc1cn([C@@H]2CC[C@@H]2F)nn1` (relative stereo) [Example 4.1.88.AB, (2R,3R,4S,5R,6R)-4-(4-(4-bromo-2,3-difluorophenyl)-1H-1,2,3-triazol-1-yl)-6-((1-((1R*,2S*)-2-fluorocyclobutyl)-1H-1,2,3-triazol-4-yl)methyl)-2-(hydroxymethyl)-5-methoxytetrahydro-2H-pyran-3-ol], for which the IC50 amounted to 0.03 µM on human Gal-3 (hGal-3) and 2.45 µM on human Gal-1 (hGal-1). Taken in the same sequence, the figures for `CO[C@@H]1[C@@H](n2cc(-c3ccc(Cl)c(F)c3F)nn2)[C@@H](O)[C@@H](CO)O[C@@H]1Cc1cn(C2CC(F)C2)nn1` (single isomer, unassigned) [Example 2.1.60.A] were 0.02 µM and 0.69 µM. For `CO[C@@H]1[C@@H](n2cc(-c3ccc(Cl)c(F)c3F)nn2)[C@@H](O)[C@@H](CO)O[C@@H]1Cc1cn(C2CC(F)C2)nn1` (single isomer, unassigned) [Example 2.1.60.B] the same measures were 0.04 µM and 1.19 µM. For `CO[C@@H]1[C@@H](n2cc(-c3ccc(Cl)c(F)c3F)nn2)[C@@H](O)[C@@H](CO)O[C@@H]1Cc1cn(C2CCC2(F)F)nn1` (single isomer, unassigned) [Example 2.1.63.A] the same measures were 0.06 µM and 2.17 µM.

Consider `CO[C@@H]1[C@@H](n2cc(-c3ccc(Cl)c(F)c3F)nn2)[C@@H](O)[C@@H](CO)O[C@@H]1Cc1cn(C2CCC2(F)F)nn1` (single isomer, unassigned) [Example 2.1.63.B], for which the half-inhibitory concentration (IC50) was 0.04 µM on human Gal-3 (hGal-3) and 2 µM at human Gal-1 (hGal-1). For `CO[C@@H]1[C@@H](n2cc(-c3ccc(Cl)c(F)c3F)nn2)[C@@H](O)[C@@H](CO)O[C@@H]1Cc1cn([C@]2(C)CCO[C@@H]2C)nn1` (single isomer, unassigned) [Example 2.1.68.A, (2R,3R,4S,5R,6R)-4-(4-(4-chloro-2,3-difluorophenyl)-1H-1,2,3-triazol-1-yl)-6-((1-((2R*,3R*)-2,3-dimethyltetrahydrofuran-3-yl)-1H-1,2,3-triazol-4-yl)methyl)-2-(hydroxymethyl)-5-methoxytetrahydro-2H-pyran-3-ol] the same measures were 0.03 µM and 1.1 µM. Taken in the same sequence, the figures for `CO[C@@H]1[C@@H](n2cc(-c3ccc(Cl)c(F)c3F)nn2)[C@@H](O)[C@@H](CO)O[C@@H]1Cc1cn([C@]2(C)CCO[C@@H]2C)nn1` (single isomer, unassigned) [Example 2.1.68.B, (2R,3R,4S,5R,6R)-4-(4-(4-chloro-2,3-difluorophenyl)-1H-1,2,3-triazol-1-yl)-6-((1-((2R*,3R*)-2,3-dimethyltetrahydrofuran-3-yl)-1H-1,2,3-triazol-4-yl)methyl)-2-(hydroxymethyl)-5-methoxytetrahydro-2H-pyran-3-ol] were 0.02 µM and 0.67 µM. Taken in the same sequence, the figures for `CO[C@@H]1[C@@H](n2cc(-c3ccc(Cl)c(F)c3F)nn2)[C@@H](O)[C@@H](CO)O[C@@H]1Cc1cn(C2COCCC2(F)F)nn1` (single isomer, unassigned) [Example 2.1.73.B] were 0.06 µM and 1.2 µM.

Turning to `CO[C@@H]1[C@@H](n2cc(-c3ccc(Cl)c(F)c3F)nn2)[C@@H](O)[C@@H](CO)O[C@@H]1Cc1cn([C@@H]2COC[C@@H]2F)nn1` (single isomer, unassigned) [Example 2.1.74.A, (2R,3R,4S,5R,6R)-4-(4-(4-chloro-2,3-difluorophenyl)-1H-1,2,3-triazol-1-yl)-6-((1-((3R*,4R*)-4-fluorotetrahydrofuran-3-yl)-1H-1,2,3-triazol-4-yl)methyl)-2-(hydroxymethyl)-5-methoxytetrahydro-2H-pyran-3-ol], the half-maximal inhibitory concentration (IC50) on human Gal-3 (hGal-3) came out at 0.01 µM; at human Gal-1 (hGal-1), 0.45 µM. For `CO[C@@H]1[C@@H](n2cc(-c3ccc(Cl)c(F)c3F)nn2)[C@@H](O)[C@@H](CO)O[C@@H]1Cc1cn([C@@H]2COC[C@@H]2F)nn1` (single isomer, unassigned) [Example 2.1.74.B, (2R,3R,4S,5R,6R)-4-(4-(4-chloro-2,3-difluorophenyl)-1H-1,2,3-triazol-1-yl)-6-((1-((3R*,4R*)-4-fluorotetrahydrofuran-3-yl)-1H-1,2,3-triazol-4-yl)methyl)-2-(hydroxymethyl)-5-methoxytetrahydro-2H-pyran-3-ol] the same measures were 0.04 µM and 1.62 µM. Take `CO[C@@H]1[C@@H](n2cc(-c3ccc(F)c(F)c3F)nn2)[C@@H](O)[C@@H](CO)O[C@@H]1Cc1cn(C23COC(C2)C3)nn1` [Ex 3.1.44.]: the IC50 on human Gal-1 (hGal-1) was 0.8 µM. Still for that read-out and setting: the figure for `CO[C@@H]1[C@@H](n2cc(-c3ccc(F)c(F)c3F)nn2)[C@@H](O)[C@@H](CO)O[C@@H]1Cn1cc(C2(O)CCC2)nn1` [Ex 3.2.31.] is 0.73 µM. Still for that read-out and setting: under `CO[C@@H]1[C@@H](n2cc(-c3ccc(Br)c(F)c3F)nn2)[C@@H](O)[C@@H](CO)O[C@@H]1Cn1cc(C2(O)CCC2)nn1` [Ex 4.2.31.] stands 2.55 µM; under `CO[C@@H]1[C@@H](n2cc(-c3ccc(Cl)c(F)c3F)nn2)[C@@H](O)[C@@H](CO)O[C@@H]1Cc1cn(C2COCCC2(F)F)nn1` (stereo partly drawn) [Example 2.1.73.A, (2R,3R,4S,5R,6R)-4-(4-(4-chloro-2,3-difluorophenyl)-1H-1,2,3-triazol-1-yl)-6-((1-(4,4-difluorotetrahydro-2H-pyran-3-yl)-1H-1,2,3-triazol-4-yl)methyl)-2-(hydroxymethyl)-5-methoxytetrahydro-2H-pyran-3-ol], 1.4 µM.

Regarding `CO[C@@H]1[C@@H](n2cc(-c3ccc(Cl)c(F)c3F)nn2)[C@@H](O)[C@@H](CO)O[C@@H]1Cc1cn(C2(C(F)(F)F)CCOC2)nn1` (stereo partly drawn) [Example 2.1.77.A, (2R,3R,4S,5R,6R)-4-(4-(4-chloro-2,3-difluorophenyl)-1H-1,2,3-triazol-1-yl)-2-(hydroxymethyl)-5-methoxy-6-((1-(3-(trifluoromethyl)tetrahydrofuran-3-yl)-1H-1,2,3-triazol-4-yl)methyl)tetrahydro-2H-pyran-3-ol], the half-maximal inhibitory concentration (IC50) at human Gal-1 (hGal-1) was 0.76 µM. Take `CO[C@@H]1[C@@H](n2cc(-c3ccc(F)c(F)c3F)nn2)[C@@H](O)[C@@H](CO)O[C@@H]1Cc1cn(C23COC(C2)C3)nn1` [Example 3.1.44, (2R,3R,4S,5R,6R)-6-((1-(2-oxabicyclo[2.1.1]hexan-4-yl)-1H-1,2,3-triazol-4-yl)methyl)-2-(hydroxymethyl)-5-methoxy-4-(4-(2,3,4-trifluorophenyl)-1H-1,2,3-triazol-1-yl)tetrahydro-2H-pyran-3-ol]: the IC50 on human Gal-3 (hGal-3) is 0.04 µM. This lies in the double-digit nanomolar range.
